Consider four cell lines from the supplement of paper PMC10307832.

Holding throughout (experiment): relative viability (nuclei count vs DMSO), 5 days (fraction); higher = more cells survive
Compound in assay [1]: CC1=C(C(=NN1)C)CC2=C(C3=C(S2)N(C(=O)N(C3=O)C)CC(C)C)C(=O)N4C[C@@H](CO4)O
An outline of the steps:
(§1)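 A plate was accepted only when its control CV was below 25% and the cells had doubled at least once. Viability is defined from nuclear counts as treated wells divided by vehicle wells, with the median taken across plates. That median covers lung cancer cell lines grown in 1536-well plates, dosed by pinning at five √10-spaced library-drug concentrations, and counted in MetaXpress from 4× Hoechst images after 5 days.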

Compound in a further assay: Cc1ccccc1C(C(=O)NC1CCCCC1)N(C(=O)Cn1ccnc1C)c1cccc(F)c1 [IDH-C35]
An outline of the steps:
as §1

Compound in the assay “IDH-C35 + Navitoclax”: Cc1ccccc1C(C(=O)NC1CCCCC1)N(C(=O)Cn1ccnc1C)c1cccc(F)c1 [IDH-C35] + CC1(C)CCC(c2ccc(Cl)cc2)=C(CN2CCN(c3ccc(C(=O)NS(=O)(=O)c4ccc(N[C@H](CCN5CCOCC5)CSc5ccccc5)c(S(=O)(=O)C(F)(F)F)c4)cc3)CC2)C1 [Navitoclax] (partner 0.5 µM)
An outline of the steps:
(§2)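 Relative viability equals treated-well nuclei counts divided by vehicle-well nuclei counts. Counts came from 4× images of lung cancer cell lines grown in 1536-well plates for 5 days after pin-tool dosing on the day after seeding. Dosing used one drug alone or a fixed anchor-drug dose plus five library-drug doses (not always all listed) in √10 steps, and values are medians of duplicate plates.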

Compound in assay [2]: CC1=C(C(=NN1)C)CC2=C(C3=C(S2)N(C(=O)N(C3=O)C)CC(C)C)C(=O)N4C[C@@H](CO4)O + CC(=O)Nc1cccc(-n2c(=O)n(C3CC3)c(=O)c3c(Nc4ccc(I)cc4F)n(C)c(=O)c(C)c32)c1 [Trametinib] (partner 0.02 µM)
An outline of the steps:
as §2

NCI-H2170: the relative viability in assay [1] (0.0025 µM) was 0.973; in assay [1] (0.007906 µM) it was 1.02; in assay [1] (0.025 µM), 0.966; in assay [1] (0.07906 µM), 0.906; in assay [1] (0.25 µM), 0.965; with IDH-C35 (0.08 µM), 0.971. Besides, the relative viability in the assay with IDH-C35 (0.253 µM) came out at 0.948; with IDH-C35 (0.8 µM) it was 1.02; with IDH-C35 (2.53 µM) it was 0.867; in the assay with IDH-C35 (8 µM) it was 0.983; with IDH-C35 + Navitoclax (first compound 0.08 µM), 0.626; in the assay with IDH-C35 + Navitoclax (first compound 0.253 µM) it was 0.535. Also, the relative viability with IDH-C35 + Navitoclax (first compound 0.8 µM) worked out at 0.595; in the assay with IDH-C35 + Navitoclax (first compound 2.53 µM) it was 0.479; with IDH-C35 + Navitoclax (first compound 8 µM), 0.627; in assay [2] (first compound 0.0025 µM) it was 0.909; in assay [2] (first compound 0.007906 µM) it was 0.966; in assay [2] (first compound 0.025 µM) it was 0.956. Moreover, the relative viability turned out to be 0.756 in assay [2] (first compound 0.07906 µM) and 0.94 in assay [2] (first compound 0.25 µM).
Turning to NCI-H1395, the relative viability in assay [1] (0.0025 µM) was 0.962; in assay [1] (0.007906 µM), 0.841; in assay [1] (0.025 µM), 0.713; in assay [1] (0.07906 µM) it was 0.795; in assay [1] (0.25 µM) it was 0.719; with IDH-C35 (0.08 µM) it was 0.942. For the same cell line, the relative viability stood at 0.866 with IDH-C35 (0.253 µM); 0.929 in the assay with IDH-C35 (0.8 µM); 0.877 in the assay with IDH-C35 (2.53 µM); 0.882 with IDH-C35 (8 µM); 1.14 with IDH-C35 + Navitoclax (first compound 0.08 µM); 1.05 in the assay with IDH-C35 + Navitoclax (first compound 0.253 µM). Also, the relative viability with IDH-C35 + Navitoclax (first compound 0.8 µM) came out at 1.49; with IDH-C35 + Navitoclax (first compound 2.53 µM) it was 1.08; in the assay with IDH-C35 + Navitoclax (first compound 8 µM), 1.16; in assay [2] (first compound 0.0025 µM) it was 1.07; in assay [2] (first compound 0.007906 µM), 0.988; in assay [2] (first compound 0.025 µM) it was 0.994. Further, the relative viability was found to be 1.04 in assay [2] (first compound 0.07906 µM) and 1 in assay [2] (first compound 0.25 µM).
As for NCI-H838, the relative viability was found to be 0.992 in assay [1] (0.0025 µM); 0.979 in assay [1] (0.007906 µM); 0.876 in assay [1] (0.025 µM); 0.84 in assay [1] (0.07906 µM); 0.856 in assay [1] (0.25 µM); 1.07 with IDH-C35 (0.08 µM). For the same cell line, the relative viability with IDH-C35 (0.253 µM) stood at 0.935; in the assay with IDH-C35 (0.8 µM), 0.978; in the assay with IDH-C35 (2.53 µM) it was 1.01; in the assay with IDH-C35 (8 µM), 0.981; in the assay with IDH-C35 + Navitoclax (first compound 0.08 µM), 1.15; with IDH-C35 + Navitoclax (first compound 0.253 µM), 1.11. Further, the relative viability with IDH-C35 + Navitoclax (first compound 0.8 µM) was 1.19; with IDH-C35 + Navitoclax (first compound 2.53 µM), 1.15; in the assay with IDH-C35 + Navitoclax (first compound 8 µM) it was 1.11; in assay [2] (first compound 0.0025 µM) it was 0.498; in assay [2] (first compound 0.007906 µM), 0.569; in assay [2] (first compound 0.025 µM), 0.393. For the same cell line, the relative viability in assay [2] (first compound 0.07906 µM) was found to be 0.452; in assay [2] (first compound 0.25 µM), 0.505.
Regarding CAL-12T, the relative viability in assay [1] (0.0025 µM) is 1.03; in assay [1] (0.007906 µM), 1.03; in assay [1] (0.025 µM) it was 0.958; in assay [1] (0.07906 µM), 1.12; in assay [1] (0.25 µM), 1.13; with IDH-C35 (0.08 µM), 0.982. The relative viability worked out at 1.04 in the assay with IDH-C35 (0.253 µM); 0.982 with IDH-C35 (0.8 µM); 1.05 with IDH-C35 (2.53 µM); 0.979 with IDH-C35 (8 µM); 1.32 with IDH-C35 + Navitoclax (first compound 0.08 µM); 1.19 with IDH-C35 + Navitoclax (first compound 0.253 µM). In addition, the relative viability is 1.06 with IDH-C35 + Navitoclax (first compound 0.8 µM); 1.36 with IDH-C35 + Navitoclax (first compound 2.53 µM); 1.09 with IDH-C35 + Navitoclax (first compound 8 µM); 0.402 in assay [2] (first compound 0.0025 µM); 0.464 in assay [2] (first compound 0.007906 µM); 0.372 in assay [2] (first compound 0.025 µM). Moreover, the figures for the relative viability in assay [2] (first compound 0.07906 µM) and in assay [2] (first compound 0.25 µM) were 0.379 and 0.405, respectively.
